These results are taken from PMC5376056, “Developing Hypothetical Inhibition Mechanism of Novel Urea Transporter B Inhibitor” (Scientific Reports, 2014).

The target of experiment [1] is T1, UT-B (Homo sapiens, UniProt Q13336).
T1 construct: using erythrocytes, which originally express UT-B; endogenous in cells; host or cells: human erythrocytes (vein blood)
T1 sequence (Q13336 1-389): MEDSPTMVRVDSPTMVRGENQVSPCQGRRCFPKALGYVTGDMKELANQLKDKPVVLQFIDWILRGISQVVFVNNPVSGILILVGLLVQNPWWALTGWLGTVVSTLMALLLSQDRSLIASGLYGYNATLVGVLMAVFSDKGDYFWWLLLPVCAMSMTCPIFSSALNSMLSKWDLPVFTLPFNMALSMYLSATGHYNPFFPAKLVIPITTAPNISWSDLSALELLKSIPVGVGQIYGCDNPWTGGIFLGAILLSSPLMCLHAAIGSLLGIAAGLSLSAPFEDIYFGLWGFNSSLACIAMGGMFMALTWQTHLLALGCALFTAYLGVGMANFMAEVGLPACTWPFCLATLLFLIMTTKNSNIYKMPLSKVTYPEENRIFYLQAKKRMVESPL
The experiment is described as follows: erythrocyte osmotic lysis assay, human erythrocytes. In kind it is cell-based. The settings on record: mean ± s.e.m., n = 3. The protocol:
(§1) Vein blood was collected from humans, SD rats, wild-type mice or UT-B-null mice as described previously.
(§2) High-throughput screening assay was performed for identification of UT-B inhibitors using erythrocytes, which originally express UT-B as described previously. Erythrocytes were diluted to a hematocrit value of 2% in hyperosmolar PBS containing 1.25 M acetamide and 5 mM glucose. Erythrocyte suspensions were preserved at room temperature for 2 h by periodic pipette mixture. Then, 99 μl erythrocyte suspension from a reservoir was added to each well of a 96-well round-bottom microplate, to which test compounds were added (1 μl, 10 μM final compound concentration, 1% final DMSO concentration). After 6 min of incubation, 20 μl of the erythrocyte suspension was added rapidly to each well of a 96-well black-walled plate containing 180 μl isomolar buffer (PBS containing 1% DMSO) in each well. Erythrocyte lysis was quantified from a single time point measure of absorbance at 710 nm wavelength with a plate reader (BioTek)[27].
(§3) The percentage of erythrocyte lysis in each test well was calculated using control values from the same plate as: % lysis = 100%. (Aneg-Atest)/(Aneg-Apos), where Atest is the absorbance value from a test well. Nonspecific UT-B inhibitor phloretin (Sigma-Aldrich, 700 μM final concentration) was added as an additional positive control.

Experiment [2] concerns the target T2, UT-B (Rattus norvegicus, UniProt P97689).
T2 construct: using erythrocytes, which originally express UT-B; endogenous in cells; host or cells: SD rat erythrocytes (vein blood)
T2 sequence (P97689 1-384): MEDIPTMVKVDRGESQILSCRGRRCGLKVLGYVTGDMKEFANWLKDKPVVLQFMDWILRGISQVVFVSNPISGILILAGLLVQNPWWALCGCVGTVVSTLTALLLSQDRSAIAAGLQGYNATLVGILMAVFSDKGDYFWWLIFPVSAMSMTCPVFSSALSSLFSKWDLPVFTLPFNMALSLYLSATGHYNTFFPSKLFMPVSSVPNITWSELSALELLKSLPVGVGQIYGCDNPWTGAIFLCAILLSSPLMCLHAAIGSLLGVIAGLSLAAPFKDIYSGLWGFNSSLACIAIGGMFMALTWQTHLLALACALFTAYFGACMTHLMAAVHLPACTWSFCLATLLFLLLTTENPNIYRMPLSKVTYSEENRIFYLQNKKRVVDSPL
The experiment is described as follows: erythrocyte osmotic lysis assay, rat erythrocytes. Type of experiment: cell-based. The settings on record: mean ± s.e.m., n = 3. The procedure: as §1, §2, §3

Experiment [3] concerns the target T3, UT-B (Mus musculus, UniProt Q8VHL0).
T3 construct: using erythrocytes, which originally express UT-B; endogenous in cells; host or cells: wild-type mouse erythrocytes (vein blood)
T3 sequence (Q8VHL0 1-384): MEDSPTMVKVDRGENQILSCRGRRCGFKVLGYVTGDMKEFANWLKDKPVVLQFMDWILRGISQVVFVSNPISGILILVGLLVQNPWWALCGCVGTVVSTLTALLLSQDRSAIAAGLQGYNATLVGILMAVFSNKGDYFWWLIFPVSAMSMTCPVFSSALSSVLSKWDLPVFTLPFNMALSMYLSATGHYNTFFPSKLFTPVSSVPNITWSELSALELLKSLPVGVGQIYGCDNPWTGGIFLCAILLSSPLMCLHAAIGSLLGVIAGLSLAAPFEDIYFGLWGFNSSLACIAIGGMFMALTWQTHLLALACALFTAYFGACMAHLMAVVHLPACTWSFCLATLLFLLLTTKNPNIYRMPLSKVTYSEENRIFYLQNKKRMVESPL
The experiment is described as follows: erythrocyte osmotic lysis assay, mouse erythrocytes. In kind it is cell-based. The note with it: mean ± s.e.m., n = 3. The procedure:
as §1, §2, §3

For experiment [4], the target named is T1, UT-B. More on the design: method as in PMID 23486518. The settings on record: cited from earlier work.
Experiment [5] addresses T2, UT-B. Set-up: method as in PMID 23486518. The note with it: cited from earlier work.
Experiment [6] deals with T3, UT-B. More on the design: method as in PMID 23486518. The note with it: cited from earlier work.
Experiment [7] addresses UT-B. More on the design: method as in Ren et al., under review. The note with it: pIC50 = -log(IC50) + 6; analogues of PU21; ref Ren et al., under review; cited from earlier work.
The subject of experiment [8] is UT-B. More on the design: method as in PMID 23486518. The note with it: rabbit; cited from earlier work.
On the set-up of experiment [9]: method as in PMID 23486518. The note with it: cited from earlier work.

Each structure is given as a SMILES string.

As for `COc1ccc2nc3sc(C(C)=O)c(N)c3cc2c1` [PU21, 1-(3-amino-6-methoxythieno[2,3-b]quinolin-2-yl)ethanone], the IC50 (in general, the midpoint of a concentration-inhibition curve) at UT-B [1] is 3.78 ± 0.48 µM; against UT-B [2], 2.62 ± 0.12 µM; against UT-B [3] it was 4.81 ± 0.4 µM.

With `CCN(Cc1ccccc1)[C@H](c1cc2c(C)cc(C)cc2[nH]c1=O)c1nnnn1C[C@@H]1CCCO1` [PU168, 3-((R)-(benzyl(ethyl)amino)(1-(((S)-tetrahydrofuran-2-yl)methyl)-1H-tetrazol-5-yl)methyl)-5,7-dimethylquinolin-2(1H)-one], the 50% inhibitory concentration (IC50) on UT-B [1] was 0.2 ± 0.03 µM; against UT-B [2], greater than 10 µM; against UT-B [3], greater than 10 µM.

Regarding `Cc1nc2ccc(NC(=O)c3ccco3)cc2c(=O)n1Cc1ccc(Cl)cc1` [PU468, N-(3-(4-chlorobenzyl)-2-methyl-4-oxo-3,4-dihydroquinazolin-6-yl)furan-2-carboxamide], the results for the IC50 on UT-B [1], against UT-B [2] and at UT-B [3] were 5.63 ± 0.82 µM, 3.18 ± 0.24 µM and 4.13 ± 0.33 µM, respectively.

As to `Cn1c(=O)c2c(nc(SCC(=O)Nc3cccc(O)c3)n2Cc2ccccc2)n(C)c1=O` [PU474, 2-((7-benzyl-1,3-dimethyl-2,6-dioxo-2,3,6,7-tetrahydro-1H-purin-8-yl)thio)-N-(3-hydroxyphenyl)acetamide], the IC50 against UT-B [1] was 0.28 ± 0.01 µM; on UT-B [2] it was greater than 10 µM; against UT-B [3] it was greater than 10 µM.

Consider `CC(=O)c1sc2nc3ccc(C)cc3cc2c1N` [PU-14], for which the “UT-B inhibition activity in vitro” value at UT-B [4], at UT-B [5], at UT-B [6] and with UT-B [8] was “potential inhibition activity” throughout. Moreover, on UT-B [7], the pIC50 (as a rule, −log10 of the IC50, conventionally taken in molar units) is 5.454. Besides, the “diuresis activity in vivo” value in experiment [9] is on record as “pharmacological diuresis activity”.
